Earlier results, collected in patent US20070202050A1, “Pharmaceutical Formulations” (priority 2006, published 2007).
Blank lines part the entries; values can stand above or below the compound they belong to.

What was measured:
[1] = topically active steroid
[2] = tested on: symptoms associated with chronic nasal congestion
[3] = tested on: secretions of natural tear components; conditions: preclinical testing

- bioavailability [1]: not readily bioavailable
SMILES: C[C@@H]1C[C@H]2[C@@H]3CCC4=CC(=O)C=C[C@]4(C)[C@@]3(Cl)[C@@H](O)C[C@]2(C)[C@@]1(OC(=O)c1ccco1)C(=O)CCl [Mometasone Furoate]

SMILES: Oc1cccc(Nc2ncc(F)c(Nc3cccc(O)c3)n2)c1 [R112]
- absolute difference over placebo [2]: 9%
- improvement from baseline measurements (prior to drug initiation) [2]: up to 38%
- relative improvement over placebo [2]: greater than 20%

SMILES: O=c1ccn([C@@H]2O[C@H](COP(=O)(O)OP(=O)(O)OP(=O)(O)OP(=O)(O)OC[C@H]3O[C@@H](n4ccc(=O)[nH]c4=O)[C@H](O)[C@@H]3O)[C@@H](O)[C@H]2O)c(=O)[nH]1 [diquafosol]
- effect on secretions of natural tear components [3]: increased the secretions of natural tear components

SMILES: Cc1cc(CCCOc2c(C)cc(-c3noc(C(F)(F)F)n3)cc2C)on1 [Pleconaril, 1,2,4-oxadiazole3-[3,5-Dimethyl-4-[3-(3-methyl-5-isoxazolyl)propoxy]phenyl]-5-(trifluoremethyl)]
- activity against rhinoviruses (rhinoviruses): active against rhinoviruses
- solubility in water / aqueous solvents: insoluble
- solubility in liquids (for example corn oil and ethanol): soluble only in liquids of low polarity
